# In patent publication US20230303542A1, “SOLID FORMS OF A PARP14 INHIBITOR” (Ribon Therapeutics, Inc., priority 2022, published 2023):
# Columns and labels:
# Assay type in all cases: physicochemical
# [1] = Preliminary solubility of Compound 1 Form I, visual assessment; details: thermodynamic from solid, estimated via visual assessment
# [2] = Kinetic solubility of Form II, clear temperature point by Crystal 16; details: organic solvent or mixture, thermodynamic from solid; at 30° C.; volume ratio of MeOH-water/MTBE 9/1/30
# [3] = Solid-state stability study (HPLC purity and XRPD); details: 60° C. (closed) and 40° C./75%RH for 14 days
# Method: HPLC analysis was performed with an Agilent HPLC 1260 series instrument.
# At day 0, 7 and 14, the sample was dissolved in diluent to prepare solution for HPLC purity analysis. Solid samples were analyzed by XRPD to check the crystal form.
# (closed) and 40° C./75%RH (open) up to 14 days, samples were prepared in duplicate for each condition. […] (closed) and 40° C./75%RH for 14 days.
# [4] = Dynamic solubility of Form II in single solvents, dissolution observed visually; details: thermodynamic from solid, 22° C.
# Method: An appropriate amount of Form II was weighed into a sample vial and then the indicated solvent was added gradually until all the solid was dissolved at RT. The dissolution was observed visually.
# [5] = Dynamic solubility of Form II in mixed solvents, dissolution observed visually; details: thermodynamic from solid
# Excerpt: The solubility data was used to control supersaturation and calculate theoretical yield of the crystallization process.
# [6] = organic solvent or mixture, 2-Me-THF
# [7] = organic solvent or mixture, Acetone
# [8] = organic solvent or mixture, Ethanol (EtOH)
# [9] = organic solvent or mixture, Ethyl acetate (EA)
# [10] = organic solvent or mixture, Methanol (MeOH)
# [11] = organic solvent or mixture, Methyl ethyl ketone (MEK)
structure (smiles),measurement,setting,value
"CC(=O)N1CCC(COc2cc(F)c3c(=O)[nH]c(CSC4CCOCC4)nc3c2)CC1 [Form I, 7-((1-acetylpiperidin-4-yl)methoxy)-5-fluoro-2-(((tetrahydro-2H-pyran-4-yl)thio)methyl)quinazolin-4(3H)-one]",solubility,[1]; [6],10000 µg/mL
same,solubility,"[1]; organic solvent or mixture, ACN",< 600 µg/mL
same,solubility,[1]; [7],1000 µg/mL
same,solubility,"[1]; organic solvent or mixture, DCM",6300 µg/mL
same,solubility,"[1]; organic solvent or mixture, DMSO",16700 µg/mL
same,solubility,[1]; [8],3300 µg/mL
same,solubility,[1]; [9],2500 µg/mL
same,solubility,"[1]; organic solvent or mixture, Heptane",< 600 µg/mL
same,solubility,"[1]; organic solvent or mixture, Isopropyl acetate (IPAC)",1300 µg/mL
same,solubility,"[1]; organic solvent or mixture, Isopropyl alcohol (IPA)",< 600 µg/mL
same,solubility,[1]; [10],10000 µg/mL
same,solubility,[1]; [11],10000 µg/mL
same,solubility,"[1]; organic solvent or mixture, Methyl tert-butyl ether (MTBE)",< 600 µg/mL
same,solubility,"[1]; organic solvent or mixture, THF",4200 µg/mL
same,solubility,"[1]; organic solvent or mixture, Toluene",< 600 µg/mL
same,solubility,[1]; Water,< 600 µg/mL
"CC(=O)N1CCC(COc2cc(F)c3c(=O)[nH]c(CSC4CCOCC4)nc3c2)CC1 [Form II, 7-((1-acetylpiperidin-4-yl)methoxy)-5-fluoro-2-(((tetrahydro-2H-pyran-4-yl)thio)methyl)quinazolin-4(3H)-one]",solubility at 30 min,[2],6500 µg/mL
same,Physical and chemical stability,[3],both physically and chemically stable
same,solubility,[4]; [6],700 µg/mL
same,solubility,"[4]; organic solvent or mixture, 2-Propanol (IPA)",< 600 µg/mL
same,solubility,"[4]; organic solvent or mixture, Acetic acid",> 167000 µg/mL
same,solubility,[4]; [7],800 µg/mL
same,solubility,"[4]; organic solvent or mixture, Acetonitrile (ACN)",600 µg/mL
same,solubility,"[4]; organic solvent or mixture, Dichloromethane (DCM)",16700 µg/mL
same,solubility,"[4]; organic solvent or mixture, Dimethyl sulfoxide (DMSO)",12500 µg/mL
same,solubility,[4]; [8],1000 µg/mL
same,solubility,[4]; [9],< 600 µg/mL
same,solubility,"[4]; organic solvent or mixture, Isopropyl acetate (IPAc)",< 600 µg/mL
same,solubility,[4]; [10],8300 µg/mL
same,solubility,[4]; [11],1700 µg/mL
same,solubility,"[4]; organic solvent or mixture, Tert-Butyl methyl ether (MTBE)",< 600 µg/mL
same,solubility,"[4]; organic solvent or mixture, Tetrahydrofuran (THF)",4200 µg/mL
same,solubility,"[4]; organic solvent or mixture, Toluene (Tol)",< 600 µg/mL
same,solubility,"[4]; organic solvent or mixture, n-Heptane (Hept)",< 600 µg/mL
same,solubility,[4]; Water,< 600 µg/mL
same,solubility,"[5]; MeOH/Anisole (1/2), organic solvent or mixture, MeOH/Anisole (½), 25° C.",~150 mg/mL
same,solubility,"[5]; MeOH/Anisole (1/2), organic solvent or mixture, MeOH/Anisole (½), 40° C.",> 200 mg/mL
same,solubility,"[5]; organic solvent or mixture, Anisole, 25° C.",< 1 mg/mL
same,solubility,"[5]; organic solvent or mixture, MeOH/Anisole (1/1), 25° C.",163 to 176 mg/mL
same,solubility,"[5]; organic solvent or mixture, MeOH/Anisole (1/1), 40° C.",~250 mg/mL
same,solubility,"[5]; organic solvent or mixture, MeOH/Anisole (2/1), 25° C.",96 to 106 mg/mL
same,solubility at 30 min,"[5]; organic solvent or mixture, MeOH/Anisole, volume ratio 1/1, RT, read-out: Solubility",150000 to 160000 µg/mL
same,solubility,"[5]; organic solvent or mixture, MeOH/Anisole/Hept (1/1/6), 25° C.",< 5 mg/mL
same,solubility,"[5]; organic solvent or mixture, MeOH/Anisole/Hept (1/2/3), 25° C.",> 10 mg/mL
same,solubility,"[5]; organic solvent or mixture, MeOH/Anisole/Hept (1/2/6), 25° C.",~5 mg/mL
same,solubility,"[5]; organic solvent or mixture, MeOH/Anisole/MTBE (1/2/6), 25° C.",~3 mg/mL
same,solubility at 30 min,"[5]; organic solvent or mixture, MeOH/MEK, volume ratio 1/1, RT, read-out: Solubility",20000 to 30000 µg/mL
same,solubility,"[5]; organic solvent or mixture, MeOH/water (7/3), 60° C.",~125 mg/mL
same,solubility at 30 min,"[5]; organic solvent or mixture, MeOH/water (7/3), RT, read-out: Dynamic solubility",10000 to 13000 µg/mL
same,solubility,"[5]; organic solvent or mixture, MeOH/water (8/2), 50° C.",50 to 100 mg/mL
same,solubility,"[5]; organic solvent or mixture, MeOH/water (8/2), 60° C.",> 125 mg/mL
same,solubility at 30 min,"[5]; organic solvent or mixture, MeOH/water (8/2), RT, read-out: Dynamic solubility",13000 to 17000 µg/mL
same,solubility,"[5]; organic solvent or mixture, MeOH/water (9/1), 0° C.",6 to 10 mg/mL
same,solubility,"[5]; organic solvent or mixture, MeOH/water (9/1), 60° C.",> 125 mg/mL
same,solubility at 30 min,"[5]; organic solvent or mixture, MeOH/water (9/1), RT (Table of MeOH/Water), read-out: Dynamic solubility",10000 to 13000 µg/mL
same,solubility at 30 min,"[5]; organic solvent or mixture, MeOH/water, volume ratio 9/1, RT (Table of mixed solvents at RT), read-out: Solubility",35000 to 43000 µg/mL
same,solubility,"[5]; organic solvent or mixture, MeOH/water/MTBE (9/1/10), 0° C.",> 4.5 mg/mL
same,solubility,"[5]; organic solvent or mixture, MeOH/water/MTBE (9/1/20), 0° C.",~3 mg/mL
same,solubility,"[5]; organic solvent or mixture, MeOH, 25° C.",8.3 mg/mL
same,solubility,"[5]; organic solvent or mixture, MeOH, 50° C.",29 to 33 mg/mL
same,solubility,"[5]; organic solvent or mixture, MeOH, 60° C.",71 to 83 mg/mL
same,solubility at 30 min,"[5]; organic solvent or mixture, MeOH, RT, read-out: Dynamic solubility",8300 µg/mL
same,solubility at 30 min,"[5]; volume ratio 1/2, organic solvent or mixture, Ethyl formate/Acetone, volume ratio ½, RT, read-out: Solubility",< 2000 µg/mL
same,solubility at 30 min,"[5]; volume ratio 1/2, organic solvent or mixture, Ethyl formate/EA, volume ratio ½, RT, read-out: Solubility",< 1000 µg/mL
same,solubility at 30 min,"[5]; volume ratio 1/2, organic solvent or mixture, Ethyl formate/IPA, volume ratio ½, RT, read-out: Solubility",< 2000 µg/mL
same,solubility at 30 min,"[5]; volume ratio 1/2, organic solvent or mixture, Ethyl formate/IPAC, volume ratio ½, RT, read-out: Solubility",< 1000 µg/mL
same,solubility at 30 min,"[5]; volume ratio 1/2, organic solvent or mixture, Ethyl formate/MEK, volume ratio ½, RT, read-out: Solubility",< 2000 µg/mL
same,solubility at 30 min,"[5]; volume ratio 1/2, organic solvent or mixture, Ethyl formate/MTBE, volume ratio ½, RT, read-out: Solubility",< 2000 µg/mL
same,solubility at 30 min,"[5]; volume ratio 1/2, organic solvent or mixture, Ethyl formate/diethyl ether, volume ratio ½, RT, read-out: Solubility",7000 to 8000 µg/mL
same,solubility at 30 min,"[5]; volume ratio 1/2, organic solvent or mixture, Ethyl formate/n-BuOH, volume ratio ½, RT, read-out: Solubility",3000 to 4000 µg/mL
same,solubility at 30 min,"[5]; volume ratio 1/2, organic solvent or mixture, MEK/EA, volume ratio ½, RT, read-out: Solubility",< 1000 µg/mL
same,solubility at 30 min,"[5]; volume ratio 1/2, organic solvent or mixture, MEK/Ethyl formate, volume ratio ½, RT, read-out: Solubility",< 1000 µg/mL
same,solubility at 30 min,"[5]; volume ratio 1/2, organic solvent or mixture, MEK/IPA, volume ratio ½, RT, read-out: Solubility",< 1000 µg/mL
same,solubility at 30 min,"[5]; volume ratio 1/2, organic solvent or mixture, MEK/IPAC, volume ratio ½, RT, read-out: Solubility",< 1000 µg/mL
same,solubility at 30 min,"[5]; volume ratio 1/2, organic solvent or mixture, MEK/diethyl ether, volume ratio ½, RT, read-out: Solubility",< 1000 µg/mL
same,solubility at 30 min,"[5]; volume ratio 1/2, organic solvent or mixture, MEK/n-BuOH, volume ratio ½, RT, read-out: Solubility",< 1000 µg/mL
same,solubility at 30 min,"[5]; volume ratio 1/2, organic solvent or mixture, MeOH/Acetone, volume ratio ½, RT, read-out: Solubility",< 14000 µg/mL
same,solubility at 30 min,"[5]; volume ratio 1/2, organic solvent or mixture, MeOH/Diethyl ether, volume ratio ½, RT, read-out: Solubility",< 2000 µg/mL
same,solubility at 30 min,"[5]; volume ratio 1/2, organic solvent or mixture, MeOH/EA, volume ratio ½, RT, read-out: Solubility",< 10000 µg/mL
same,solubility at 30 min,"[5]; volume ratio 1/2, organic solvent or mixture, MeOH/Ethyl formate, volume ratio ½, RT, read-out: Solubility",< 25000 µg/mL
same,solubility at 30 min,"[5]; volume ratio 1/2, organic solvent or mixture, MeOH/MEK, volume ratio ½, RT, read-out: Solubility",24000 to 30000 µg/mL
same,solubility at 30 min,"[5]; volume ratio 1/2, organic solvent or mixture, MeOH/n-BuOH, volume ratio ½, RT, read-out: Solubility",< 3000 µg/mL
same,solubility at 30 min,"[5]; volume ratio 1/9, organic solvent or mixture, MeOH/Ethyl formate, volume ratio ⅑, RT, read-out: Solubility",< 1000 µg/mL
same,solubility at 30 min,"[5]; volume ratio 1/9, organic solvent or mixture, MeOH/MEK, volume ratio ⅑, RT, read-out: Solubility",7000 to 8000 µg/mL
